Assay results reported in patent US6737383B1, “Herbicidal oxadiazolidines” (priority 1999, dated 2004).

Key:
[1] = test system: rape; assay: Test B pre/postemergence rape; assay type: in vivo, Brassica napus
How it was run: (§1)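 Test chemicals in a non-phytotoxic solvent mixture with surfactant were sprayed preemergence onto planted seeds and postemergence onto plants 2 to 18 cm tall (1- to 4-leaf stage). After twelve to sixteen days in a greenhouse, injury was visually rated against untreated controls from 0 (no effect) to 10 (complete control).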

[2] = test system: velvetleaf; assay: Test B pre/postemergence velvetleaf; assay type: in vivo, Abutilon theophrasti
How it was run: as §1

[3] = test system: giant foxtail; assay: Test B pre/postemergence giant foxtail; assay type: in vivo, Setaria faberii
How it was run: as §1

[4] = test system: bedstraw; assay: Test B pre/postemergence bedstraw; assay type: in vivo, Galium aparine
How it was run: as §1

[5] = test system: sugar beet; assay: Test B pre/postemergence sugar beet; assay type: in vivo, Beta vulgaris
How it was run: as §1

[6] = test system: purple nutsedge; assay: Test B pre/postemergence purple nutsedge; assay type: in vivo, Cyperus rotundus
How it was run: as §1

[7] = test system: rice; assay: Test B flood test rice; assay type: in vivo, Oryza sativa
How it was run: (§2)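 Read-out is a visual response score from 0 (no effect) to 10 (complete control), assigned by comparison with untreated controls. Treatment was applied at the 2-leaf stage, and plants stayed in the greenhouse for twelve to sixteen days before scoring.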

[8] = test system: wild oat; assay: Test B pre/postemergence wild oat; assay type: in vivo, Avena fatua
How it was run: as §1

[9] = test system: pigweed; assay: Test B pre/postemergence pigweed; assay type: in vivo, Amaranthus retroflexus
How it was run: as §1

[10] = test system: surinam grass; assay: Test B pre/postemergence surinam grass; assay type: in vivo, Brachiaria decumbens
How it was run: as §1

[11] = test system: corn; assay: Test B pre/postemergence corn; assay type: in vivo, Zea mays
How it was run: as §1

[12] = test system: wheat; assay: Test B pre/postemergence wheat; assay type: in vivo, Triticum aestivum
How it was run: as §1

[13] = test system: smallflower flatsedge; assay: Test B flood test smallflower flatsedge; assay type: in vivo, Cyperus difformis
How it was run: as §2

[14] = test system: duck salad; assay: Test B flood test duck salad; assay type: in vivo, Heteranthera limosa
How it was run: as §2

[15] = test system: soybean; assay: Test B pre/postemergence soybean; assay type: in vivo, Glycine max
How it was run: as §1

[16] = test system: cocklebur; assay: Test B pre/postemergence cocklebur; assay type: in vivo, Xanthium strumarium
How it was run: as §1

[17] = Preemergence, Rate 62 g/ha, scale of 0 to 10 where 0 is no effect and 10 is complete control
[18] = Preemergence, Rate 125 g/ha, 0 is no effect, 10 is complete control
[19] = Preemergence, Rate 250 g/ha, scale 0 to 10, 0 is no effect, 10 is complete control
[20] = Preemergence, Rate 500 g/ha, scale of 0 to 10 where 0 is no effect and 10 is complete control
[21] = Rate 62 g/ha, Postemergence, scale of 0 to 10 where 0 is no effect and 10 is complete control
[22] = Rate 125 g/ha, Postemergence, scale 0 to 10
[23] = Rate 500 g/ha, Postemergence, scale 0 to 10
[24] = Rate 62 g/ha, headed Pre-emergence (flood test species), scale 0 to 10 (0 no effect, 10 complete control)
[25] = Rate 125 g/ha, Pre-emergence, flood test species, scale 0 to 10 where 0 is no effect and 10 is complete control
[26] = Rate 250 g/ha, Pre-emergence, flood-test species, scale 0 to 10, 0 is no effect, 10 is complete control
[27] = Rate 500 g/ha, headed Pre-emergence (flood test species), scale 0 to 10 (0 no effect, 10 complete control)

In the case of `CCC(CC)N(C(=O)n1oc(=O)n(-c2ccccc2C)c1=O)c1ccc(F)cc1` [Compound 193], the “Rape plant response rating” value [1, 17] is reported as 0, the “Rape plant response rating (0 to 10 scale)” value [1, 18] is reported as 0 and the “Rape plant response rating” value [1, 19] is reported as 0. For the same compound, the “Plant response rating, Rape” value [1, 20] was 0, the “Rape plant response rating” value [1, 21] was 0 and the “Rape plant response rating” value [1, 22] was 0. The “Plant response rating (0 to 10; 0 is no effect, 10 is complete control), Rape” value ([1]; Rate 250 g/ha, Postemergence) was 0, the “Rape plant response rating” value [1, 23] was 0 and the “Velvetleaf plant response rating” value [2, 17] was 0. The “Velvetleaf plant response rating” value [2, 19] was 0, the “Plant response rating, Velvetleaf” value [2, 20] was 0 and the “Velvetleaf plant response rating” value [2, 21] was 0. For the same compound, the “Velvetleaf plant response rating” value [2, 22] was 0, the “Plant response rating (0 to 10; 0 is no effect, 10 is complete control), Velvetleaf” value ([2]; Rate 250 g/ha, Postemergence) was 0 and the “Giant foxtail plant response rating” value [3, 17] was 2. For the same compound, the “Giant foxtail plant response rating (0 to 10 scale)” value [3, 18] was 4, the “Giant foxtail plant response rating” value [3, 19] was 5 and the “Plant response rating, Giant foxtail” value [3, 20] was 6. For the same compound, the “Giant foxtail plant response rating” value [3, 21] was 0, the “Giant foxtail plant response rating” value [3, 22] was 0 and the “Plant response rating (0 to 10; 0 is no effect, 10 is complete control), Giant foxtail” value ([3]; Rate 250 g/ha, Postemergence) was 0. For the same compound, the “Giant foxtail plant response rating” value [3, 23] was 0, the “Bedstraw plant response rating” value [4, 17] was 0 and the “Bedstraw plant response rating (0 to 10 scale)” value [4, 18] was 0. The “Bedstraw plant response rating” value [4, 19] was 0, the “Plant response rating, Bedstraw” value [4, 20] was 0 and the “Bedstraw plant response rating” value [4, 21] was 0. The “Bedstraw plant response rating” value [4, 22] was 0, the “Plant response rating (0 to 10; 0 is no effect, 10 is complete control), Bedstraw” value ([4]; Rate 250 g/ha, Postemergence) was 0 and the “Bedstraw plant response rating” value [4, 23] was 0. The “Sugarbeets plant response rating” value [5, 17] was 0, the “Sugarbeets plant response rating (0 to 10 scale)” value [5, 18] was 0 and the “Sugarbeets plant response rating” value [5, 19] was 0. For the same compound, the “Plant response rating, Sugarbeets” value [5, 20] was 0, the “Sugarbeets plant response rating” value [5, 21] was 0 and the “Sugarbeets plant response rating” value [5, 22] was 0. The “Plant response rating (0 to 10; 0 is no effect, 10 is complete control), Sugarbeets” value ([5]; Rate 250 g/ha, Postemergence) was 0, the “Sugarbeets plant response rating” value [5, 23] was 0 and the “Nutsedge plant response rating” value [6, 17] was 0. For the same compound, the “Nutsedge plant response rating (0 to 10 scale)” value [6, 18] was 0, the “Nutsedge plant response rating” value [6, 19] was 0 and the “Plant response rating, Nutsedge” value [6, 20] was 0. For the same compound, the “Nutsedge plant response rating” value [6, 21] was 0, the “Nutsedge plant response rating” value [6, 22] was 0 and the “Plant response rating (0 to 10; 0 is no effect, 10 is complete control), Nutsedge” value ([6]; Rate 250 g/ha, Postemergence) was 0. The “Nutsedge plant response rating” value [6, 23] was 0, the “Rice plant response rating” value [7, 24] was 0 and the “Rice plant response rating” value [7, 25] was 0. For the same compound, the “Rice plant response rating” value [7, 26] was 0, the “Plant response rating, Rice” value [7, 27] was 0 and the “Wild oats plant response rating” value [8, 17] was 0. The “Wild oats plant response rating” value [8, 19] was 0, the “Plant response rating, Wild oats” value [8, 20] was 0 and the “Wild oats plant response rating” value [8, 21] was 0. For the same compound, the “Wild oats plant response rating” value [8, 22] was 0, the “Plant response rating (0 to 10; 0 is no effect, 10 is complete control), Wild oats” value ([8]; Rate 250 g/ha, Postemergence) was 0 and the “Redroot pigweed plant response rating” value [9, 17] was 0. The “Redroot pigweed plant response rating (0 to 10 scale)” value [9, 18] was 0, the “Redroot pigweed plant response rating” value [9, 19] was 0 and the “Plant response rating, Redroot pigweed” value [9, 20] was 0. The “Redroot pigweed plant response rating” value [9, 21] was 0, the “Redroot pigweed plant response rating” value [9, 22] was 0 and the “Plant response rating (0 to 10; 0 is no effect, 10 is complete control), Redroot pigweed” value ([9]; Rate 250 g/ha, Postemergence) was 0. The “Redroot pigweed plant response rating” value [9, 23] was 0, the “B. signalgrass plant response rating” value [10, 17] was 0 and the “B. signalgrass plant response rating (0 to 10 scale)” value [10, 18] was 0. For the same compound, the “B. signalgrass plant response rating” value [10, 19] was 0, the “Plant response rating, B. signalgrass” value [10, 20] was 0 and the “B. signalgrass plant response rating” value [10, 21] was 0. For the same compound, the “B. signalgrass plant response rating” value ([10]; Rate 125 g/ha, Postemergence, scale 0 (no effect) to 10 (complete control)) was 0, the “Plant response rating, B. signalgrass” value ([10]; Rate 250 g/ha, Postemergence, scale 0 to 10, 0 is no effect, 10 is complete control) was 0 and the “B. signalgrass plant response rating” value ([10]; Rate 500 g/ha, Postemergence, scale 0 to 10, 0 no effect, 10 complete control) was 0. For the same compound, the “Corn plant response rating” value [11, 17] was 0, the “Corn plant response rating (0 to 10 scale)” value [11, 18] was 0 and the “Corn plant response rating” value [11, 19] was 0. For the same compound, the “Plant response rating, Corn” value [11, 20] was 0, the “Corn plant response rating” value [11, 21] was 0 and the “Corn plant response rating” value [11, 22] was 0. The “Plant response rating (0 to 10; 0 is no effect, 10 is complete control), Corn” value ([11]; Rate 250 g/ha, Postemergence) was 0, the “Corn plant response rating” value [11, 23] was 0 and the “Wheat plant response rating” value [12, 17] was 0. The “Wheat plant response rating” value [12, 19] was 0, the “Plant response rating, Wheat” value [12, 20] was 0 and the “Wheat plant response rating” value [12, 21] was 0. The “Wheat plant response rating” value [12, 22] was 0, the “Plant response rating (0 to 10; 0 is no effect, 10 is complete control), Wheat” value ([12]; Rate 250 g/ha, Postemergence) was 0 and the “S. Flatsedge plant response rating” value [13, 24] was 0. For the same compound, the “S. Flatsedge plant response rating” value [13, 25] was 0, the “S. Flatsedge plant response rating” value [13, 26] was 0 and the “S. Flatsedge plant response rating” value ([13]; Rate 500 g/ha, Pre-emergence, flood test species, scale 0 to 10 (0 no effect, 10 complete control)) was 0. The “Ducksalad plant response rating” value [14, 24] was 0, the “Ducksalad plant response rating” value [14, 25] was 0 and the “Ducksalad plant response rating” value [14, 26] was 0. For the same compound, the “Plant response rating, Ducksalad” value [14, 27] was 0, the “Soybean plant response rating” value [15, 17] was 0 and the “Soybean plant response rating (0 to 10 scale)” value [15, 18] was 0. For the same compound, the “Soybean plant response rating” value [15, 19] was 0, the “Plant response rating, Soybean” value [15, 20] was 0 and the “Soybean plant response rating” value [15, 21] was 0. For the same compound, the “Soybean plant response rating” value [15, 22] was 1, the “Plant response rating (0 to 10; 0 is no effect, 10 is complete control), Soybean” value ([15]; Rate 250 g/ha, Postemergence) was 1 and the “Soybean plant response rating” value [15, 23] was 2. For the same compound, the “Cocklebur plant response rating” value [16, 17] was 0, the “Cocklebur plant response rating (0 to 10 scale)” value [16, 18] was 0 and the “Cocklebur plant response rating” value [16, 19] was 0. The “Plant response rating, Cocklebur” value [16, 20] was 0, the “Cocklebur plant response rating” value [16, 21] was 0 and the “Cocklebur plant response rating” value [16, 22] was 0. For the same compound, the “Plant response rating (0 to 10; 0 is no effect, 10 is complete control), Cocklebur” value ([16]; Rate 250 g/ha, Postemergence) was 0 and the “Cocklebur plant response rating” value [16, 23] was 0.
